System: 967376-340-R-J2-PDC multicell spheroid viability
Test: Anticancer human tumor 967376-340-R-J2-PDC patient-derived colon adenocarcinoma cell line growth inhibition [PI3K]
Conditions: for IC50: curve of first compound; for viability, T/C: stronger effect = lower value
Procedure, shortened: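 Viability of mixed-cell spheroids was determined after exposure to pairwise combinations, one partner being inavolisib, alpelisib, duvelisib or copanlisib. Highest tested concentration matched clinical Cmax where known and 10 microM where not, descending in half-log steps.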

[1] = second compound 0.0316 µM, first compound 0.0316 µM
[2] = second compound 0.0316 µM, first compound 0.1 µM
[3] = second compound 0.0316 µM, first compound 0.316 µM
[4] = second compound 0.0316 µM, first compound 1 µM
[5] = second compound 0.0316 µM, first compound 3.16 µM
[6] = second compound 0.0316 µM, first compound 10 µM
[7] = second compound 0.1 µM, first compound 0.0316 µM
[8] = second compound 0.1 µM, first compound 0.1 µM
[9] = second compound 0.1 µM, first compound 0.316 µM
[10] = second compound 0.1 µM, first compound 1 µM
[11] = second compound 0.1 µM, first compound 3.16 µM
[12] = second compound 0.1 µM, first compound 10 µM
[13] = second compound 0.316 µM, first compound 0.0316 µM
[14] = second compound 0.316 µM, first compound 0.1 µM
[15] = second compound 0.316 µM, first compound 0.316 µM
[16] = second compound 0.316 µM, first compound 1 µM
[17] = second compound 0.316 µM, first compound 3.16 µM
[18] = second compound 0.316 µM, first compound 10 µM
[19] = second compound 1 µM, first compound 0.0316 µM
[20] = second compound 1 µM, first compound 0.1 µM
[21] = second compound 1 µM, first compound 0.316 µM
[22] = second compound 1 µM, first compound 1 µM
[23] = second compound 1 µM, first compound 3.16 µM
[24] = second compound 1 µM, first compound 10 µM
[25] = second compound 3.16 µM, first compound 0.0316 µM
[26] = second compound 3.16 µM, first compound 0.1 µM
[27] = second compound 3.16 µM, first compound 0.316 µM
[28] = second compound 3.16 µM, first compound 1 µM
[29] = second compound 3.16 µM, first compound 3.16 µM
[30] = second compound 3.16 µM, first compound 10 µM
[31] = second compound 10 µM, first compound 0.0316 µM
[32] = second compound 10 µM, first compound 0.1 µM
[33] = second compound 10 µM, first compound 0.316 µM
[34] = second compound 10 µM, first compound 1 µM
[35] = second compound 10 µM, first compound 3.16 µM
[36] = second compound 10 µM, first compound 10 µM
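Note: spheroids exposed to agents for 7 days before read-out.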
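Throughout, for viability, T/C: luminescence used as surrogate of cell viability.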

## CCCS(=O)(=O)Nc1ccc(F)c(C(=O)c2c[nH]c3ncc(-c4ccc(Cl)cc4)cc23)c1F + CC(Nc1ncnc2nc[nH]c12)c1cc2cccc(Cl)c2c(=O)n1-c1ccccc1
Second compound 0.0316 µM
  IC50: > 10 µM
Second compound 0.1 µM
  IC50: > 10 µM
Second compound 0.316 µM
  IC50: > 10 µM
Second compound 1 µM
  IC50: > 10 µM
Second compound 3.16 µM
  IC50: > 10 µM
Second compound 10 µM
  IC50: > 10 µM
[1]
  viability, T/C: 122%
[2]
  viability, T/C: 125%
[3]
  viability, T/C: 109%
[4]
  viability, T/C: 113%
[5]
  viability, T/C: 103%
[6]
  viability, T/C: 58.9%
[7]
  viability, T/C: 97.2%
[8]
  viability, T/C: 106%
[9]
  viability, T/C: 99.1%
[10]
  viability, T/C: 90.5%
[11]
  viability, T/C: 92%
[12]
  viability, T/C: 52.7%
[13]
  viability, T/C: 103%
[14]
  viability, T/C: 89.1%
[15]
  viability, T/C: 96.6%
[16]
  viability, T/C: 96.3%
[17]
  viability, T/C: 109%
[18]
  viability, T/C: 60.4%
[19]
  viability, T/C: 98.2%
[20]
  viability, T/C: 95.4%
[21]
  viability, T/C: 105%
[22]
  viability, T/C: 92.7%
[23]
  viability, T/C: 110%
[24]
  viability, T/C: 58.4%
[25]
  viability, T/C: 119%
[26]
  viability, T/C: 79.9%
[27]
  viability, T/C: 92.2%
[28]
  viability, T/C: 111%
[29]
  viability, T/C: 100%
[30]
  viability, T/C: 74.9%
[31]
  viability, T/C: 84.2%
[32]
  viability, T/C: 87.1%
[33]
  viability, T/C: 80%
[34]
  viability, T/C: 88.7%
[35]
  viability, T/C: 98.7%
[36]
  viability, T/C: 61.1%

## CNC(=O)c1ccc(N2C(=S)N(c3ccc(C#N)c(C(F)(F)F)c3)C(=O)C2(C)C)cc1F + CC(Nc1ncnc2nc[nH]c12)c1cc2cccc(Cl)c2c(=O)n1-c1ccccc1
Second compound 0.0316 µM
  IC50: > 10 µM
Second compound 0.1 µM
  IC50: > 10 µM
Second compound 0.316 µM
  IC50: > 10 µM
Second compound 1 µM
  IC50: > 10 µM
Second compound 3.16 µM
  IC50: > 10 µM
Second compound 10 µM
  IC50: > 10 µM
[1]
  viability, T/C: 140%
[2]
  viability, T/C: 88.7%
[3]
  viability, T/C: 92%
[4]
  viability, T/C: 101%
[5]
  viability, T/C: 134%
[6]
  viability, T/C: 88.3%
[7]
  viability, T/C: 109%
[8]
  viability, T/C: 109%
[9]
  viability, T/C: 94.2%
[10]
  viability, T/C: 104%
[11]
  viability, T/C: 99.3%
[12]
  viability, T/C: 73.1%
[13]
  viability, T/C: 89.6%
[14]
  viability, T/C: 104%
[15]
  viability, T/C: 82.2%
[16]
  viability, T/C: 92%
[17]
  viability, T/C: 106%
[18]
  viability, T/C: 105%
[19]
  viability, T/C: 81.4%
[20]
  viability, T/C: 80.3%
[21]
  viability, T/C: 72.3%
[22]
  viability, T/C: 86.1%
[23]
  viability, T/C: 113%
[24]
  viability, T/C: 88.5%
[25]
  viability, T/C: 78.5%
[26]
  viability, T/C: 89%
[27]
  viability, T/C: 82%
[28]
  viability, T/C: 80.1%
[29]
  viability, T/C: 102%
[30]
  viability, T/C: 87.5%
[31]
  viability, T/C: 63.9%
[32]
  viability, T/C: 83.7%
[33]
  viability, T/C: 70%
[34]
  viability, T/C: 70.6%
[35]
  viability, T/C: 92.3%
[36]
  viability, T/C: 77.4%
